The values below come from ChEMBL document CHEMBL5236544, “Furazans in Medicinal Chemistry” (J Med Chem, 2021).

Molecules are shown by their SMILES. ≈ marks a conversion by molar mass, not a printed value.

Data set [1] has as its target Cyclin-dependent kinase 2 (Homo sapiens, UniProt P24941). Description: Inhibition of CDK-2 (unknown origin).
The subject of a further data set is CHO. Description: Antiproliferative activity against CHO cells assessed as reduction in cell proliferation by MTT assay. In kind it is functional, cell-based. As to conditions: Cricetulus griseus.
Another data set has as its target Lactate dehydrogenase (Plasmodium falciparum, UniProt Q0PJ46). Description: Inhibition of recombinant Plasmodium falciparum LDH.
The nature of data set [2]: Cmax in mouse at 100 mg/kg, po. In kind it is ADME, organism-based. Also noted: dose 100 mg/kg, route po. The settings on record: in vivo.
A short description of data set [3]: Cmax in mouse at 100 mg/kg, ip. The settings on record: in vivo. Also noted: dose 100 mg/kg, route ip. In kind it is ADME, organism-based.
A short description of data set [4]: Binding affinity to Plasmodium falciparum LDH assessed as inhibitory constant.
The nature of data set [5]: Half life in mouse at 10 mg/kg, po. As to conditions: in vivo. In kind it is ADME, organism-based.
Data set [6] has as its system Plasmodium falciparum. Description: Antimalarial activity against drug sensitive Plasmodium falciparum 3D7. In kind it is functional, organism-based.
In data set [7] the test system is Plasmodium falciparum. Description: Antimalarial activity against drug resistant Plasmodium falciparum KI. In kind it is functional, organism-based.
The test system of data set [8] is Plasmodium falciparum. Description: Antimalarial activity against Plasmodium falciparum assessed as parasitic reduction at 10 mg/kg of chloroquine relative to control. More on the design: scale not given: the % may be the effect or the level left. In kind it is functional.
The test system of another data set is KB. Description: Antitumor activity against human KB cells assessed as reduction in cell viability. In kind it is functional, cell-based.
In another data set the test system is HeLa. Description: Antitumor activity against human HeLa cells assessed as reduction in cell viability. In kind it is functional, cell-based.
A short description of data set [9]: Half life in mouse at 10 mg/kg, ip. In kind it is ADME, organism-based. As to conditions: in vivo.
A short description of data set [10]: Inhibition of human recombinant LDH.
Data set [11] deals with Plasmodium falciparum. Description: Antimalarial activity against Plasmodium falciparum assessed as parasitic reduction at 100 mg/kg relative to control. In kind it is functional. More on the design: scale not given: the % may be the effect or the level left.
A further data set deals with PANC-1. Description: Antitumor activity against human PANC-1 cells in xenografted mouse model assessed as reduction in tumor growth at 30 mg/kg, ip administered daily for 21 days relative to control. In kind it is functional. Also noted: scale not given: the % may be the effect or the level left. As to conditions: time 21 day.
The next data set relates to HCC1954. Description: Antitumor activity against human HCC1954 cells in xenografted mouse model assessed as reduction in tumor growth at 30 mg/kg, ip administered daily for 21 days relative to control. In kind it is functional. More on the design: scale not given: the % may be the effect or the level left. The settings on record: time 21 day.
Another data set has as its system MDA-MB-453. Description: Antitumor activity against human MDA-MB-453 cells in xenografted mouse model assessed as reduction in tumor growth at 30 mg/kg, ip administered daily for 21 days relative to control. In kind it is functional. More on the design: scale not given: the % may be the effect or the level left. As to conditions: time 21 day. On the technique in general: In xenograft studies the graft and the host belong to different species.

For another data set, the system named is BT-474. Description: Antitumor activity against human BT-474 cells in xenografted mouse model assessed as reduction in tumor growth at 30 mg/kg, ip administered daily for 21 days relative to control. Also noted: scale not given: the % may be the effect or the level left. As to conditions: time 21 day. In kind it is functional.
The subject of the next data set is SK-OV-3. Description: Antitumor activity against human SK-OV-3 cells in xenografted mouse model assessed as reduction in tumor growth at 30 mg/kg, ip administered daily for 21 days relative to control. In kind it is functional. Also noted: scale not given: the % may be the effect or the level left. The settings on record: time 21 day.
The next data set deals with LNCaP. Description: Antitumor activity against human LNCaP cells in xenografted mouse model assessed as reduction in tumor growth at 30 mg/kg, ip administered daily for 21 days relative to control. In kind it is functional. Also noted: scale not given: the % may be the effect or the level left. The settings on record: time 21 day.
A further data set relates to MCF7. Description: cells. In kind it is functional, cell-based. The settings on record: Homo sapiens, MCF7, 24 h.
A short description of data set [12]: physchem. As to conditions: PBS, pH 7.4.
Description: Solubility of the compound in PBS at pH 7.4
Another data set is described as follows: in vitro. As to conditions: human, liver microsomes, po, 10 mg/kg.
Data set [13] can be described thus: physchem. As to conditions: octanol/water.
Description: Lipophilicity, log P of the compound
Data set [14] concerns Helicobacter pylori. Description: Antibacterial activity against Helicobacter pylori SS1 assessed as reduction in bacterial growth in the presence of metronidazole-sensitive by broth microdilution method. In kind it is functional. A general note: Dilution methods test growth across graded concentrations, often in twofold steps.
The subject of data set [15] is Helicobacter pylori. Description: Antibacterial activity against Helicobacter pylori SS1 assessed as reduction in bacterial growth incubated for 1 hrs in presence of metronidazole by colony-counting method. In kind it is functional.
Data set [16] concerns Helicobacter pylori. Description: Antibacterial activity against Helicobacter pylori NCTC11637 assessed as reduction in bacterial growth incubated for 1 hrs in presence of metronidazole-resistant by colony-counting method. In kind it is functional.
Data set [17] has as its system Helicobacter pylori. Description: Antibacterial activity against Helicobacter pylori NCTC11637 assessed as reduction in bacterial growth incubated for 1 hrs in presence of metronidazole by colony-counting method. In kind it is functional.
The next data set has as its system Mus musculus. Description: In vivo antibacterial activity against Helicobacter pylori SS1 infected mouse model assessed as reduction in infection at 200 mg/kg, po administered for 8 days relative to control. In kind it is functional. More on the design: scale not given: the % may be the effect or the level left. The settings on record: time 8 day.
Data set [18] has as its system Streptococcus pneumoniae. Description: Antibiofilm activity against Streptococcus pneumoniae reduction in biofilm formation in the presence of tobramycin at 13 uM relative to control. More on the design: scale not given: the % may be the effect or the level left. In kind it is functional.
In data set [19] the test system is Staphylococcus aureus. Description: Antibacterial activity against Staphylococcus aureus assessed as reduction in bacterial growth by broth microdilution method. In kind it is functional.
The subject of data set [20] is Streptococcus pneumoniae. Description: Antibacterial activity against Streptococcus pneumoniae assessed as reduction in bacterial growth incubated for 1 hrs in presence of tobramycin by colony-counting method. In kind it is functional.
For data set [21], the system named is Staphylococcus aureus. Description: Antibiofilm activity against Staphylococcus aureus reduction in biofilm formation at 63 uM relative to control. In kind it is functional. Also noted: scale not given: the % may be the effect or the level left.
The subject of data set [22] is Staphylococcus aureus. Description: Antibacterial activity against Staphylococcus aureus assessed as reduction in bacterial growth incubated for 1 hrs in presence of azithromycin by colony-counting method. In kind it is functional.
In data set [23] the test system is Streptococcus pneumoniae. Description: Antibacterial activity against Streptococcus pneumoniae assessed as reduction in bacterial growth by broth microdilution method. In kind it is functional.
Data set [24] deals with Streptococcus pneumoniae. Description: Antibiofilm activity against Streptococcus pneumoniae reduction in biofilm formation at 63 uM relative to control. In kind it is functional. Also noted: scale not given: the % may be the effect or the level left.
Data set [25] relates to Staphylococcus aureus. Description: Antibiofilm activity against Staphylococcus aureus reduction in biofilm formation in the presence of azithromycin at 63 uM relative to control. More on the design: scale not given: the % may be the effect or the level left. In kind it is functional.

Broadly, the IC50 is the concentration needed to halve the response being measured. Broadly, the EC50 is the concentration that produces a half-maximal response. Broadly, the Cmax is the maximum level reached in the sampled fluid or tissue. Usually Ki stands for a measure of affinity in units of concentration, obtained from inhibition or displacement. A word on the half-life: it is the time in which the quantity being followed falls by half. The EC90 is the concentration at which the effect reaches the 90% level. One may read the solubility as the concentration that dissolves in the medium under given conditions. For orientation: logP means the decadic logarithm of the partition coefficient of the neutral form, usually between octanol and water. What is called MIC is the smallest concentration in the dilution series that meets the test's criterion for growth inhibition.

Lactate dehydrogenase, sequence (Q0PJ46 whole entry): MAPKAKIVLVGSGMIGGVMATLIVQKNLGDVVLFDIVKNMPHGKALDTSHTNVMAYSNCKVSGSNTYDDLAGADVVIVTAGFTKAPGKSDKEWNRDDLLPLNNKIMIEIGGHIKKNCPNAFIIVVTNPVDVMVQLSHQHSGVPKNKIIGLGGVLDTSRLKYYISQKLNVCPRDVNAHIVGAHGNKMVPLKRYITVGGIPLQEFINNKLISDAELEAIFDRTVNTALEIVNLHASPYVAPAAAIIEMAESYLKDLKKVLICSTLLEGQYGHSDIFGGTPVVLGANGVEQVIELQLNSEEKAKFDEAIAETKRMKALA
Description for MCF7: Antiproliferative activity against human MCF7 assessed as reduction in cell viability incubated for 24 hrs by MTT assay
Description for in vitro: Half life in human liver microsomes at 10 mg/kg, po

`Nc1nonc1-n1nnc(-c2nnc(-c3ccncc3)[nH]2)c1CN1CCCCC1` had an IC50 in [1] above 250 µM. Moreover, the 50% effective concentration (EC50) in the data set with CHO was 1.85 µM.
For the compound `O=C(O)c1nonc1O`, the 50% inhibitory concentration (IC50) at Lactate dehydrogenase is 0.65 µM; in data set [10], 72.1 µM. The figures for the Cmax in data set [2] and in [3] were 138 µM and 196 µM, respectively. Also, the inhibition constant Ki in [4] was 0.21 µM. The half-life in [5] and in data set [9] was 1.3 h throughout. Further, the concentration giving a half-maximal response (EC50) in the data set with Plasmodium falciparum [6] came out at 22.5 µM; with Plasmodium falciparum [7], 18.6 µM; in the data set on KB, 640 µM; with HeLa, 1300 µM. This compound showed a concentration for an effect of 90% (EC90) in the data set with Plasmodium falciparum [6] of 75.9 µM. Moreover, the values for the Activity in the data set with Plasmodium falciparum [8] and with Plasmodium falciparum [11] were 100% and 41%, respectively.
For the compound `CCn1c(-c2nonc2N)nc2c(C#CC(C)(C)O)ncc(OC[C@H]3CCCNC3)c21` [GSK-690693], the Activity in the data set on PANC-1 is on record as 5%; in the data set on HCC1954, 65%; in the data set on MDA-MB-453, 27%; in the data set on BT-474, 46%; with SK-OV-3, 58%; with LNCaP it was 50%.
In the case of `Oc1nc2nonc2nc1Nc1ccc(OC(F)(F)F)cc1`, the EC50 in the data set on MCF7 amounted to 4.3 µM. The same compound gave a solubility in “physchem [12]” above 500 µM. In the data set “in vitro”, this compound gave a half-life of 5.7 h. In the data set “physchem [13]”, this compound had a logP of 5.2.
For `COc1ccc(C[S+]([O-])c2ccc(N)c3nonc23)cc1` (centres undefined), the MIC in the data set with Helicobacter pylori [14] was found to be 105 µM; in the data set on Helicobacter pylori [15], 2.9 µM; in the data set with Helicobacter pylori [16], 53 µM; with Helicobacter pylori [17] it was 187 µM. In addition, the Activity in the data set on Mus musculus was 60%.
Consider `N=C(N/C(=N/O)c1nonc1N)c1ccccc1N`, for which the Activity in the data set on Streptococcus pneumoniae [18] was 50%; in the data set on Staphylococcus aureus [21], 77%; in the data set with Streptococcus pneumoniae [24], 73%; with Staphylococcus aureus [25], 48%. Besides, the MIC with Staphylococcus aureus [19] was found to be 250 µM (≈ 65.3 µg/mL); in the data set on Streptococcus pneumoniae [20], 50 µM; with Staphylococcus aureus [22] it was 200 µM; with Streptococcus pneumoniae [23], 250 µM (≈ 65.3 µg/mL).
